In ChEMBL document CHEMBL5325425, “Design, synthesis and biological evaluation of pyrrolopyrimidine derivatives as novel and selective positive modulator of the small conductance Ca2+-activated K+ channels” (Eur J Med Chem, 2023):
Blank lines part the entries; values can stand above or below the molecule they belong to.

Experiments:
[1] = target: T1, Small conductance calcium-activated potassium channel protein 1 (Homo sapiens, UniProt Q92952); assay: Positive modulation of SK1 (unknown origin)
T1 sequence (Q92952 whole entry): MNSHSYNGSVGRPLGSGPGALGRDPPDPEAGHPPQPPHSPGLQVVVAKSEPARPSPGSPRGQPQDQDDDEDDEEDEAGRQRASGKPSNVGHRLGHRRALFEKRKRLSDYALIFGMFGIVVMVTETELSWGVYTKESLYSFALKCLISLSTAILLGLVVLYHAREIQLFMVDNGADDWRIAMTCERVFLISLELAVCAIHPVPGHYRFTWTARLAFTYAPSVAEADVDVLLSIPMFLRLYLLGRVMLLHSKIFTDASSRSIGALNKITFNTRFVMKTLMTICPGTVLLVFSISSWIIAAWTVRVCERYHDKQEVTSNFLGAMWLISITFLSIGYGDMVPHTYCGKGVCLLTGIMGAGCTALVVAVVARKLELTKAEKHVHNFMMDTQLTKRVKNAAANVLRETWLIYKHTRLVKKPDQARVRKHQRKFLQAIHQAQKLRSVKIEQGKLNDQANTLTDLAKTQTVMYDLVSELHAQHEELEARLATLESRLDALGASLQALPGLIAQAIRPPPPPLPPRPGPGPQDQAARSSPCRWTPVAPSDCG

[2] = target: T2, Small conductance calcium-activated potassium channel protein 2 (Homo sapiens, UniProt Q9H2S1); assay: Positive modulation of SK2 (unknown origin)
T2 sequence (Q9H2S1 whole entry): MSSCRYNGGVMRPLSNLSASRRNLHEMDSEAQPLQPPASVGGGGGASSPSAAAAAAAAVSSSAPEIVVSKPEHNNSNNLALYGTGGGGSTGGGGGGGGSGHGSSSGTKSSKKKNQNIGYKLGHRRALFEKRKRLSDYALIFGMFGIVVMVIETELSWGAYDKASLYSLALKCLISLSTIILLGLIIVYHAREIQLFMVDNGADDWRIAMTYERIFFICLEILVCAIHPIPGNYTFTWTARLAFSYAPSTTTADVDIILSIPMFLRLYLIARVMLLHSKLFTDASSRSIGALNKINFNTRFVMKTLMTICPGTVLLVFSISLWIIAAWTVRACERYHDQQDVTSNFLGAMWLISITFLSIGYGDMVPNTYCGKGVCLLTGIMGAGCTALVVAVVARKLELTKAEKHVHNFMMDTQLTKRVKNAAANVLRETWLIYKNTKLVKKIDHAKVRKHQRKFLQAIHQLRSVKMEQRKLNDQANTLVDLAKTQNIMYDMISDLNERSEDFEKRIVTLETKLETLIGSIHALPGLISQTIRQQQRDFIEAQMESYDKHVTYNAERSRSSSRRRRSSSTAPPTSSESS

[3] = target: Small conductance calcium-activated potassium channel protein 3 (Homo sapiens, UniProt Q9UGI6); assay: Positive modulation of SK3 (unknown origin)
Chain of Small conductance calcium-activated potassium channel protein 3 (Q9UGI6 whole entry): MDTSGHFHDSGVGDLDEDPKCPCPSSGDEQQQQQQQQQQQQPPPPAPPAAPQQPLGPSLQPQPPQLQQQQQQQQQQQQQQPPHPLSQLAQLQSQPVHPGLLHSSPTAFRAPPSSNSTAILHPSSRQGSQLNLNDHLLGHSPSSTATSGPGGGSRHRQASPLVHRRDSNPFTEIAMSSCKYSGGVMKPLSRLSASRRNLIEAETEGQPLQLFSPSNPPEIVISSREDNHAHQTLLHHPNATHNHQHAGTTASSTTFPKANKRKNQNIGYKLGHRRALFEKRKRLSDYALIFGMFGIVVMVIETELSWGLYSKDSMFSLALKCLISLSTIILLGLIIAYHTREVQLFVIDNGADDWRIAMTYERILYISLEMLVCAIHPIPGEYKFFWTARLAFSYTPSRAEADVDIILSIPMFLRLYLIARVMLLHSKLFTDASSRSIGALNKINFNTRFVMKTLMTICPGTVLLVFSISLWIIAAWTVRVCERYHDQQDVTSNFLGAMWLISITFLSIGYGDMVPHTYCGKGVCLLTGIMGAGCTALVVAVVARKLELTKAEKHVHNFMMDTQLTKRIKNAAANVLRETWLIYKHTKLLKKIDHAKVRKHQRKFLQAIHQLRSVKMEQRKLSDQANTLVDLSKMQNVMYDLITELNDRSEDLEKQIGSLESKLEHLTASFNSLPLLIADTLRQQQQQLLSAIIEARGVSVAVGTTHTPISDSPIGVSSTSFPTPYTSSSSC

[4] = target: T2, Small conductance calcium-activated potassium channel protein 2; assay: Positive modulation of SK2 in HEK293 cells in presence of Ca2+ by patch-clamp method; format: cell-based
[5] = target: T1, Small conductance calcium-activated potassium channel protein 1; assay: Positive modulation of SK1 in HEK293 cells in presence of Ca2+ by patch-clamp method; format: cell-based
[6] = Activation of rat SK2 variant a transfected in human tsA201 cells coexpressing CaM/GFP in presence of Ca2+ by […]; format: cell-based
[7] = AUC (0 to infinity) in fasted Sprague-Dawley rat at 100 mg/kg, po measured upto 12 hrs by LC-MS/MS analysis; format: ADME, organism-based; design: time < 12 hrs, dose 100 mg/kg, route po; settings: in vivo
[8] = Apparent oral clearance in fasted Sprague-Dawley rat at 100 mg/kg, po measured upto 12 hrs by LC-MS/MS analysis; format: ADME, organism-based; settings: in vivo
[9] = Tmax in fasted Sprague-Dawley rat at 100 mg/kg, po measured upto 12 hrs by LC-MS/MS analysis; format: ADME, organism-based; settings: in vivo
[10] = Cmax in fasted Sprague-Dawley rat at 2 mg/kg, iv measured upto 12 hrs by LC-MS/MS analysis; format: ADME, organism-based; design: dose 2 mg/kg, time < 12 hrs, route iv; settings: in vivo
HUVEC = assay: Cytotoxicity against HUVEC cells assessed as cell viability at 0.1 to 10000 nM incubated for 24 hrs by CCK8 assay; format: toxicity, cell-based; settings: human, 10 µM, dose 0.1-10000 nM
[11] = Cmax in fasted Sprague-Dawley rat at 100 mg/kg, po measured upto 12 hrs by LC-MS/MS analysis; format: ADME, organism-based; design: time < 12 hrs, dose 100 mg/kg, route po; settings: in vivo
[12] = MRT in fasted Sprague-Dawley rat at 100 mg/kg, po measured upto 12 hrs by LC-MS/MS analysis; format: ADME, organism-based; settings: in vivo
[13] = Apparent volume of distribution during terminal phase in fasted Sprague-Dawley rat at 100 mg/kg, po measured upto 12 hrs by LC-MS/MS analysis; format: ADME, organism-based; settings: in vivo, read-out: Vz/F
[14] = Apparent oral clearance in fasted Sprague-Dawley rat at 2 mg/kg, iv measured upto 12 hrs by LC-MS/MS analysis; format: ADME, organism-based; settings: in vivo
[15] = Apparent permeability across apical to basal side in human BMEC cells at 10 ug/ml incubated for 24 hrs by BBB assay; format: ADME, cell-based; settings: dose 10 µg/ml
[16] = AUC (0 to t) in fasted Sprague-Dawley rat at 100 mg/kg, po measured upto 12 hrs by LC-MS/MS analysis; format: ADME, organism-based; design: time < 12 hrs, dose 100 mg/kg, route po; settings: in vivo
[17] = Oral bioavailability in fasted Sprague-Dawley rat at 100 mg/kg measured upto 12 hrs by LC-MS/MS analysis; format: ADME, organism-based; settings: in vivo
[18] = Half life in fasted Sprague-Dawley rat at 2 mg/kg, iv measured upto 12 hrs by LC-MS/MS analysis; format: ADME, organism-based; settings: in vivo
[19] = Half life in fasted Sprague-Dawley rat at 100 mg/kg, po measured upto 12 hrs by LC-MS/MS analysis; format: ADME, organism-based; settings: in vivo
[20] = AUC (0 to t) in fasted Sprague-Dawley rat at 2 mg/kg, iv measured upto 12 hrs by LC-MS/MS analysis; format: ADME, organism-based; design: dose 2 mg/kg, time < 12 hrs, route iv; settings: in vivo
[21] = Apparent volume of distribution during terminal phase in fasted Sprague-Dawley rat at 2 mg/kg, iv measured upto 12 hrs by LC-MS/MS analysis; format: ADME, organism-based; settings: in vivo
[22] = MRT in fasted Sprague-Dawley rat at 2 mg/kg, iv measured upto 12 hrs by LC-MS/MS analysis; format: ADME, organism-based; settings: in vivo
[23] = AUC (0 to infinity) in fasted Sprague-Dawley rat at 2 mg/kg, iv measured upto 12 hrs by LC-MS/MS analysis; format: ADME, organism-based; design: time < 12 hrs, dose 2 mg/kg, route iv; settings: in vivo

SMILES: Cc1cc(NC2CCCCC2)nc(-n2nc(C)cc2C)n1
EC50 [1]: > 100 µM
EC50 [2]: 14 µM
EC50 [3]: 5.6 µM

SMILES: O=C1Nc2c(ccc(Cl)c2Cl)C1=NO
EC50 [4]: 800 nM
EC50 [5]: 600 nM

SMILES: Cc1cc(C)n(-c2nc(Nc3cccc(C(F)(F)F)c3)c3c(ccn3C)n2)n1
EC50 [6]: 20.4 µM

SMILES: Cc1cc(C)n(-c2nc(Nc3ccc(I)cc3)c3ccsc3n2)n1
EC50 [6]: > 100 µM

SMILES: Cc1ccn(-c2nc(Nc3ccc(F)cc3)c3ccn(C)c3n2)n1
CLz/F ([8]; po, 100 mg/kg, 12 h): 41.716 L/h/kg
Tmax [9]: 2.67 h
Cmax [10]: 1680 ng/mL
Activity (HUVEC): Non-Toxic
Cmax [11]: 488 ng/mL
MRT [12]: 3.37 h
Vd/F [13]: 86.7 L/kg
CLz/F [14]: 1.903 L/h/kg
Papp A→B at 24 h, 10 ug/ml [15]: 3.07 ×10⁻⁶ cm/s
AUCt ([16]; 12 h): 2427.989 µg·h/L
F ([17]; po, 100 mg/kg, 12 h): 23.6%
half-life [18]: 158 min
half-life [19]: 86 min
AUC(0-t) at 12 h [20]: 1110 ng·h/mL
Vz/F [21]: 6.111 L/kg
MRT [22]: 1.51 h
AUC ([23]; 12 h): 1168.28 µg·h/L

SMILES: Cc1cc(C)n(-c2nc(Nc3ccc(Cl)c(C(F)(F)F)c3)c3c(ccn3C)n2)n1
EC50 [6]: 29.8 µM

SMILES: Cc1cc(C)n(-c2nc(Nc3ccc(Cl)cc3)c3ccsc3n2)n1
EC50 [6]: > 100 µM

SMILES: Cc1cc(C)n(-c2nc(Nc3ccccc3)c3ccsc3n2)n1
EC50 [6]: 8.34 µM

SMILES: Cc1cc(C)n(-c2nc(NC3CCCCC3)c3ccsc3n2)n1
EC50 [6]: > 100 µM

SMILES: Cc1cc(C)n(-c2nc(N(C)Cc3ccccc3)c3ccn(C)c3n2)n1
EC50 [6]: 19.1 µM

SMILES: CCc1ccc(Nc2nc(-n3nc(C)cc3C)nc3sccc23)cc1
EC50 [6]: > 100 µM

SMILES: Cc1cc(C)n(-c2nc(Nc3ccc(Cl)cc3)c3ncn(C)c3n2)n1
EC50 [4]: 1800 nM
Papp A→B at 24 h, 10 ug/ml [15]: 2.94 ×10⁻⁶ cm/s
EC50 [5]: > 100000 nM

SMILES: Cc1cc(C)n(-c2nc(Nc3ccc(Br)cc3)c3ccsc3n2)n1
EC50 [6]: > 100 µM

SMILES: Cc1ccc(Nc2nc(-n3nc(C)cc3C)nc3sccc23)cc1
EC50 [6]: > 100 µM

SMILES: Cc1cc(C)n(-c2nc(Nc3ccccc3)c3c(ccn3C)n2)n1
EC50 [6]: 8.43 µM

SMILES: CCC(CC)Nc1nc(-n2nc(C)cc2C)nc2sccc12
EC50 [6]: > 100 µM

SMILES: COc1ccc(Nc2nc(-n3nc(C)cc3C)nc3c2ccn3C)cc1
EC50 [6]: 13.7 µM

SMILES: COc1ccc(Nc2nc(-n3nc(C)cc3C)nc3sccc23)cc1
EC50 [6]: > 100 µM

SMILES: Cc1cccc(Nc2nc(-n3nc(C)cc3C)nc3ccn(C)c23)c1
EC50 [6]: 7.71 µM

SMILES: CCc1ccc(Nc2nc(-n3nc(C)cc3C)nc3c2ccn3C)cc1
EC50 [6]: > 100 µM

SMILES: Cc1cc(C)n(-c2nc(Nc3ccc(C(C)C)cc3)c3ccsc3n2)n1
EC50 [6]: > 100 µM

SMILES: Cc1cc(C)n(-c2nc(Nc3ccc(F)cc3)c3ccsc3n2)n1
EC50 [6]: 6.78 µM

Now from value to molecule, other results behind:

EC50 [6]: 1.79 µM
SMILES: Cc1cc(C)n(-c2nc(Nc3ccc(F)c(Cl)c3)c3ccn(C)c3n2)n1

AUC(0-inf) [7]: 2510 ng·h/mL
CL/F ([8]; Sprague-Dawley, read-out: CLz/F (converted)): 813 mL/min/kg
Tmax [9]: 2.67 h
Cmax [10]: 1620 ng/mL
Cmax [11]: 662 ng/mL
MRT [12]: 3.22 h
Vd/F [13]: 92.9 L/kg
CLz/F [14]: 1.608 L/h/kg
Papp A→B at 24 h, 10 ug/ml [15]: 3.23 ×10⁻⁶ cm/s
AUC(0-t) at 12 h ([16]; Sprague-Dawley): 2500 ng·h/mL
EC50 [6]: 0.73 µM
bioavailability ([17]; Sprague-Dawley): 4.03%
half-life [18]: 118 min
half-life [19]: 75.3 min
AUC(0-t) at 12 h [20]: 1360 ng·h/mL
Vz/F [21]: 4.791 L/kg
MRT [22]: 1.5 h
AUC(0-inf) ([23]; Sprague-Dawley): 1370 ng·h/mL
SMILES: Cc1cc(C)n(-c2nc(Nc3cccc(Br)c3)c3ccn(C)c3n2)n1
Activity (HUVEC): Non-Toxic

EC50 [6]: 3.5 µM
SMILES: Cc1cc(C)n(-c2nc(Nc3ccc(Cl)cc3)c3ccn(C)c3n2)n1

EC50 [6]: 2.97 µM
SMILES: Cc1cc(C)n(-c2nc(Nc3cccc(C(C)C)c3)c3c(ccn3C)n2)n1

EC50 [6]: 6.54 µM
SMILES: Cc1cccc(Nc2nc(-n3nc(C)cc3C)nc3c2ccn3C)c1

EC50 [6]: 1.94 µM
SMILES: Cc1cc(C)n(-c2nc(Nc3ccc(Br)cc3)c3ccn(C)c3n2)n1

EC50 [6]: 2.28 µM
SMILES: Cc1cc(C)n(-c2nc(NC3CCCCC3)c3ccn(C)c3n2)n1

EC50 [6]: 0.5 µM
SMILES: Cc1ccn(-c2nc(Nc3ccc(Cl)c(C(F)(F)F)c3)c3ccn(C)c3n2)n1

EC50 [6]: 0.48 µM
SMILES: Cc1ccn(-c2nc(Nc3cccc(Br)c3)c3ccn(C)c3n2)n1

EC50 [6]: 4.31 µM
SMILES: Cc1cc(C)n(-c2nc(Nc3ccccc3)c3ccn(C)c3n2)n1

EC50 [6]: 4.08 µM
SMILES: Cc1cc(C)n(-c2nc(Nc3cccc(C#N)c3)c3ccn(C)c3n2)n1

EC50 [6]: 3.1 µM
SMILES: Cc1ccc(Nc2nc(-n3nc(C)cc3C)nc3c2ccn3C)cc1

EC50 [6]: 3.81 µM
SMILES: Cc1cc(C)n(-c2nc(Nc3ccc(C(C)C)cc3)c3ccn(C)c3n2)n1

EC50 [6]: 1.2 µM
SMILES: Cc1cc(C)n(-c2nc(Nc3ccc(Cl)c(C(F)(F)F)c3)c3ccn(C)c3n2)n1

EC50 [6]: 1.6 µM
SMILES: Cc1cc(C)n(-c2nc(Nc3cccc(C(F)(F)F)c3)c3ccn(C)c3n2)n1

EC50 [6]: 6.52 µM
SMILES: Cc1ccn(-c2nc(Nc3cccc(C(F)(F)F)c3)c3ccn(C)c3n2)n1

EC50 [6]: 5.73 µM
SMILES: Cc1cc(C)n(-c2nc(Nc3cccc([N+](=O)[O-])c3)c3ccn(C)c3n2)n1

EC50 [6]: 3.41 µM
SMILES: Cc1cc(C)n(-c2nc(Nc3ccc(F)cc3)c3ccn(C)c3n2)n1

EC50 [6]: 1.73 µM
SMILES: Cc1cc(C)n(-c2nc(Nc3cccc(Br)c3)c3c(ccn3C)n2)n1

EC50 [6]: 3.65 µM
SMILES: CCc1ccc(Nc2nc(-n3nc(C)cc3C)nc3ccn(C)c23)cc1
